According to PubChem BioAssay AID2202556 (NIEHS Division of Translational Toxicology (DTT)):
Records with an inconclusive call do not appear. Active and inactive are the calls of the source. No rule for the calls is given here.

Tested on: in vivo alkaline comet assay, DNA damage, mouse/rat
Experiment: In vivo alkaline comet assay, summary data
Description: The comet assay examines the ability of substances to cause DNA damage in cells from a variety of different tissues, such as liver, stomach, lung, or brain.
There are multiple forms of DNA damage, including DNA adducts (addition of a chemical structure to a DNA base), oxidative damage to DNA, and breaks in one or both strands. The comet assay can detect single and double strand breaks, DNA adducts, and DNA crosslinks, as well as breaks along the DNA strand that are produced during the normal processes of DNA repair or replication. Thus, the comet assay provides a snapshot of the balance between DNA damage and DNA repair at the time the tissue was harvested.
The DNA damage detected by the comet assay can resolve in several ways. The damage is most often rapidly and correctly repaired. Alternately, a cell that sustains DNA damage may die without passing the damage on to daughter cells following cell division. However, if the damage is not repaired or is repaired incorrectly, the daughter cells may inherit the damage as mutations or chromosome breaks, which are found in many human diseases including cancer. The outcome of the detected DNA damage is unknown.
The comet assay provides the advantage of being able to look at chemical effects on DNA in tissues other than bone marrow, which is the main source of cells used to examine chemical-induced chromosome damage and mutation induction in animals (see Micronucleus Assay).
Animals (rats or mice) are treated with a test substance once or multiple times, and DNA damage is usually evaluated 3-6 hours after the final treatment.
The animal tissue is rapidly minced in a buffer solution, combined with agarose, and layered onto slides. The slides are placed in a solution that removes the cellular and nuclear membranes and cellular proteins, leaving behind the nuclear DNA. The slides are then incubated in an alkaline solution (pH > 13) to convert alkali-labile sites into strand breaks and allow the DNA to unwind. Next, the slides are subjected to an electrical field in a tank filled with a buffer solution. Broken DNA, having a negative charge, migrates out of the area of the nucleus toward the positively charged anode. This forms a comet-like shape with the nucleus at the "head" and the migrated DNA as the "tail." All steps of the method are performed using ice-cold solutions and buffers. After this process, the DNA is stained with a fluorescent dye and cells are analyzed using Comet Assay IV Imaging Software.
For each cell, DNA migration is analyzed using an automated software system attached to a microscope. The extent of damage is characterized as the percent tail DNA (how much DNA migrated to the tail, compared to the total DNA as a percentage). At least 100 cells per sample are evaluated; current guidelines for the assay recommend analysis of at least 150 cells per sample. The data is statistically analyzed to determine if there is a significant increase in percent tail DNA in chemical-exposed animals compared to the controls (animals not exposed).
Dose-related responses, as well as significant dose groups, are considered during the evaluation of the data. For a positive test, both a dose response and at least one significant dose group are required. If only one of these measures is present, the test is considered to be equivocal. The absence of either condition results in a negative test. The final conclusions for comet assays are determined by considering the results of statistical analyses, reproducibility of any observed effects, and the magnitude of the effects. Ultimately, both biological and statistical significance are considered when reaching a final conclusion.
For more details, please refer to the original protocol: https://ntp.niehs.nih.gov/research/apptoxres/genetic and publication: https://www.ncbi.nlm.nih.gov/pubmed/26212309

SMILES | outcome
NC(=O)CC(N)=O | active; positive
CNNC | active
Cc1ccc(N(C)C)cc1 | active; negative
C=CC1(C)OC(=O)N(c2cc(Cl)cc(Cl)c2)C1=O (centres undefined) | active; positive
CC(=O)CC(C)=O | active; positive
O=C([O-])[O-].O=C([O-])[O-].[OH-].[OH-].[OH-].[OH-].[OH-].[OH-].[Zn+2].[Zn+2].[Zn+2].[Zn+2].[Zn+2] | active
CNC(=O)Oc1cccc2ccccc12 | active
NC(=O)NO | active; positive
c1ccoc1 | active; positive
[O]=[Sb][O][Sb]=[O] | active; positive
CC(C)c1ccccc1 | active; positive
CCNC(=O)CC(C)=O | active; positive
CC[C@]1(O)C[C@H]2CN(CCc3c([nH]c4ccccc34)[C@@](C(=O)OC)(c3cc4c(cc3OC)N(C=O)[C@H]3[C@@](O)(C(=O)OC)[C@H](OC(C)=O)[C@]5(CC)C=CCN6CC[C@]43[C@@H]65)C2)C1 | active
CCOS(C)(=O)=O | active
C=CC(N)=O | active; positive
C=CC(=O)NC(C)(C)C | active; positive
OC(CCl)CCl | active; positive
ClCC1CO1 (centres undefined) | active; positive
Nc1nc(=O)n([C@@H]2CS[C@H](CO)O2)cc1F | active; positive
